# Measurements published in patent US20240044899A1, “BIOMARKERS FOR FIMEPINOSTAT THERAPY” (Curis, Inc, priority 2021, published 2024).
# Test: Phase 1 and phase 2 clinical studies of fimepinostat, treatment-emergent adverse events (CTCAE v4.03)
# Type: in vivo, human
# Settings: intention to treat population (n = 58)
# Method: Patients received fimepinostat capsules (Pharmatek Laboratories Inc., San Diego, CA, USA) orally, within 30 minutes of a meal, in 21-day cycles until disease progression was documented or other discontinuation criteria were met. In the phase 2 protocol, change in dose and/or schedule intensity of fimepinostat were allowed as per protocol due to toxicity. Safety and tolerability were assessed by the incidence and severity of adverse events as determined by NCI Common Terminology Criteria for Adverse Events (CTCAE v4.03) in both protocols.
# The intention to-treat-population included al patients from both protocols who received at least one dose of fimepinostat. The evaluable population includes all patients who received at least one dose of study drug (phase 1) or one full cycle of treatment (phase 2) and completed at least one post-baseline disease assessment. Patients were re-staged according to the Revised Response Criteria for Malignant Lymphoma.^18
# All patients received fimepinostat 60 mg by mouth 5 days on/2 days off as the starting dose with the exception of 1 patient enrolled in the phase 1 protocol who received 60 mg by mouth three times weekly. Three patients enrolled in the phase 1 protocol received concurrent rituximab.
# Treatment-emergent adverse events (TEAE) occurring per patient by highest grade experienced with a frequency of ≥10% are listed in Table 5. The most common TEAE of any grade were diarrhea (72%), nausea (52%) and thrombocytopenia (38%). The most common grade 3 or 4 adverse events were […], neutropenia (15%), diarrhea (12%) and anemia (12%). Three patients experienced grade 5 TEAE: respiratory failure deemed unlikely related to treatment in 1 patient, sepsis deemed not related to treatment in 1 patient and tracheal obstruction deemed not related to treatment in 1 patient. Two non-evaluable patients discontinued treatment due to TEAE: grade 2 vomiting deemed related to treatment occurring in 1 patient and grade 4 hypercalcemia deemed unlikely related to treatment in 1 patient.
smiles,measurement,setting,value
"COc1ccc(-c2nc(N3CCOCC3)c3sc(CN(C)c4ncc(C(=O)NO)cn4)cc3n2)cn1 [fimepinostat, Fimepinostat]","TEAE Abdominal pain, patients n (%)",Grade 3,3 (5)
same,"TEAE Anemia, patients n (%)",Grade 3,7 (12)
same,"TEAE Arthralgia, patients n (%)",Grade 3,0 (0)
same,"TEAE Back pain, patients n (%)",Grade 3,1 (2)
same,"TEAE Constipation, patients n (%)",Grade 3,0 (0)
same,"TEAE Cough, patients n (%)",Grade 3,0 (0)
same,"TEAE Decreased appetite, patients n (%)",Grade 3,0 (0)
same,"TEAE Diarrhea, patients n (%)",Grade 3,7 (12)
same,"TEAE Dizziness, patients n (%)",Grade 3,0 (0)
same,"TEAE Dyspnea, patients n (%)",Grade 3,3 (5)
same,"TEAE Edema peripheral, patients n (%)",Grade 3,0 (0)
same,"TEAE Fatigue, patients n (%)",Grade 3,1 (2)
same,"TEAE Hypokalemia, patients n (%)",Grade 3,6 (10)
same,"TEAE Hypomagnesaemia, patients n (%)",Grade 3,0 (0)
same,"TEAE Hypophosphatemia, patients n (%)",Grade 3,4 (7)
same,"TEAE Lymphocyte count decreased, patients n (%)",Grade 3,3 (5)
same,"TEAE Nausea, patients n (%)",Grade 3,0 (0)
same,"TEAE Neutropenia, patients n (%)",Grade 3,7 (12)
same,"TEAE Pain in extremity, patients n (%)",Grade 3,1 (2)
same,"TEAE Pyrexia, patients n (%)",Grade 3,1 (2)
same,"TEAE Thrombocytopenia, patients n (%)",Grade 3,11 (19)
same,"TEAE Upper respiratory tract infection, patients n (%)",Grade 3,0 (0)
same,"TEAE Vomiting, patients n (%)",Grade 3,1 (2)
same,"TEAE Weight decreased, patients n (%)",Grade 3,1 (2)
same,"TEAE White blood cell count decreased, patients n (%)",Grade 3,3 (5)
same,"TEAE Abdominal pain, patients n (%)",Grade 4,0 (0)
same,"TEAE Anemia, patients n (%)",Grade 4,0 (0)
same,"TEAE Arthralgia, patients n (%)",Grade 4,0 (0)
same,"TEAE Back pain, patients n (%)",Grade 4,0 (0)
same,"TEAE Constipation, patients n (%)",Grade 4,0 (0)
same,"TEAE Cough, patients n (%)",Grade 4,0 (0)
same,"TEAE Decreased appetite, patients n (%)",Grade 4,0 (0)
same,"TEAE Diarrhea, patients n (%)",Grade 4,0 (0)
same,"TEAE Dizziness, patients n (%)",Grade 4,0 (0)
same,"TEAE Dyspnea, patients n (%)",Grade 4,0 (0)
same,"TEAE Edema peripheral, patients n (%)",Grade 4,0 (0)
same,"TEAE Fatigue, patients n (%)",Grade 4,0 (0)
same,"TEAE Hypokalemia, patients n (%)",Grade 4,0 (0)
same,"TEAE Hypomagnesaemia, patients n (%)",Grade 4,0 (0)
same,"TEAE Hypophosphatemia, patients n (%)",Grade 4,0 (0)
same,"TEAE Lymphocyte count decreased, patients n (%)",Grade 4,0 (0)
same,"TEAE Nausea, patients n (%)",Grade 4,0 (0)
same,"TEAE Neutropenia, patients n (%)",Grade 4,2 (3)
same,"TEAE Pain in extremity, patients n (%)",Grade 4,0 (0)
same,"TEAE Pyrexia, patients n (%)",Grade 4,0 (0)
same,"TEAE Thrombocytopenia, patients n (%)",Grade 4,3 (5)
same,"TEAE Upper respiratory tract infection, patients n (%)",Grade 4,0 (0)
same,"TEAE Vomiting, patients n (%)",Grade 4,0 (0)
same,"TEAE Weight decreased, patients n (%)",Grade 4,0 (0)
same,"TEAE White blood cell count decreased, patients n (%)",Grade 4,1 (2)
same,"TEAE Abdominal pain, patients n (%)",Grades 1-2,6 (10)
same,"TEAE Anemia, patients n (%)",Grades 1-2,6 (10)
same,"TEAE Arthralgia, patients n (%)",Grades 1-2,7 (12)
same,"TEAE Back pain, patients n (%)",Grades 1-2,5 (9)
same,"TEAE Constipation, patients n (%)",Grades 1-2,14 (24)
same,"TEAE Cough, patients n (%)",Grades 1-2,9 (16)
same,"TEAE Decreased appetite, patients n (%)",Grades 1-2,18 (31)
same,"TEAE Diarrhea, patients n (%)",Grades 1-2,35 (60)
same,"TEAE Dizziness, patients n (%)",Grades 1-2,8 (14)
same,"TEAE Dyspnea, patients n (%)",Grades 1-2,6 (10)
same,"TEAE Edema peripheral, patients n (%)",Grades 1-2,6 (10)
same,"TEAE Fatigue, patients n (%)",Grades 1-2,18 (31)
